Data as given in patent US10654873B2, “Cytotoxic agents and conjugates thereof” (priority 2016, dated 2020).
“Also recorded” adds a separate entry of the source. Like-named read-outs stand apart in the source and are kept apart here.

How the values were obtained:
[1] = test system: HER2-positive tumour cell line, SK-BR-3; assay: In vitro potency / cell viability assay (CellTiter-Glo) in SK-BR-3 cell line; assay type: cell-based
Source text: (§1) Loss of tumour cell viability following treatment with cytotoxic drugs or ADCs in vitro can be measured by growing cell lines in the presence of increasing concentrations of drugs or ADCs and quantifying the loss of proliferation or metabolic activity using CellTiter-Glo® Luminescence reagent (Promega). The protocol describes cell seeding, drug treatment and determination of the cell viability in reference to untreated cells based on ATP synthesis, which is directly related to the number of cells present in the well.
HER2-positive tumour cell line, SK-BR-3 (ATCC-HTB-30), was grown in McCoy's 5A medium complemented with 10% foetal bovine serum, 100 u/mL Penicillin and 100 μg/mL Streptomycin. SK-BR-3 cells were detached, seeded at 5,000 cells per well (100 μL/well) into poly-D-lysine coated clear bottom white-walled 96-well plates and incubated for 24 h at 37° C. and 5% CO2.
Serial dilutions of compounds were prepared in triplicate using the relevant cell culture medium as diluent. The CD30-positive Karpas-299 cells were treated with 50 μL compounds at 2× assay concentration. Medium from the SK-BR-3 assay plates was removed and replaced by 100 μL serially diluted compounds at 1× assay concentration. The assay concentrations are specified in Table 1. The cells were then incubated with the compounds (total volume 100 μL/well), at 37° C. and 5% CO2 for a further 96 h.
(§2) At the end of the incubation, cell viability was measured using the CellTiter-Glo® Luminescence reagent, as described by the manufacturer's instructions. The data was subsequently analysed using a four parameter non-linear regression model.
(§3) Viability was expressed as % of untreated cells and calculated using the following formula: […]
The % viability (Y-axis) was plotted against the logarithm of drug concentration in nM (X-axis) to extrapolate the IC50 values for all compounds.

[2] = Stability in mouse serum (LC-Orbitrap-MS); assay type: in vitro ADME; settings: 37° C., 4 and 7 days, 90% (v/v) mouse serum, 0.05 mg/mL
Protocol: Solutions of compounds 26 and 78 (comparator) in a 50/50 v/v mixture of DMF:buffer solution (20 mM sodium phosphate, 150 mM sodium chloride, 20 mM EDTA, pH 7.5) (0.5 mg/mL) were diluted to 0.05 mg/mL in mouse serum (90% (v/v) serum content). An aliquot of each sample corresponding to the ‘0’ time point was immediately frozen at −80° C., while the remaining sample was incubated at 37° C. for 7 d. Additional aliquots were taken after 4 and 7 d and frozen at −80° C. Prior to analysis, the samples were removed from the freezer and maytansinoid-related species were extracted from the serum by protein precipitation. Protein precipitation was performed by adding acetonitrile (75% v/v) to each time-point aliquot, and after gentle mixing, allowing the mixtures to stand at 4° C. for 2 h. The precipitated protein was then separated by centrifugation (1400×g, 30 min, 4° C.) and the supernatant containing the extracted maytansinoid-related species were analysed by LC-Orbitrap-MS.
The samples were further diluted with water resulting in a 15% v/v acetonitrile solution. An aliquot (2.5 μL) of each solution was then injected onto a nano-liquid chromatography MS system, consisting of a Dionex ULTIMATE 3000 UPLC fitted with a PepMap C18 column (0.075×150 mm), coupled online to an Orbitrap-MS instrument operated in ES positive mode at 75K resolution using lock mass. […]

[3] = test system: CD30-positive human T cell lymphoma cell line Karpas-299; assay: In vitro potency / cell viability assay (CellTiter-Glo) in Karpas-299 cell line; assay type: cell-based; settings: 96 h incubation
Source text: as §1
The CD30-positive human T cell lymphoma cell line Karpas-299 was obtained from Dr Abraham Karpas at the University of Cambridge. The cells were grown in RPMI medium supplemented with 10% foetal bovine serum, 100 U/mL Penicillin and 100 μg/mL Streptomycin. […]
as §2, §3
Loss of tumour cell viability following treatment with ADCs incorporating maytansinoids of the invention was tested by growing cell lines in the presence of increasing concentrations of ADCs and quantifying the loss of proliferation or metabolic activity as described in Example 2. […]

[4] = Stability of atropisomers on heating in DMSO (HPLC); assay type: physicochemical; settings: 50° C., 1 h
Protocol: The stability of the atropisomers was investigated by heating solutions of compounds 80 and 81 in DMSO at 50° C. for 1 h.

[5] = Homo sapiens, SK-BR-3, free compounds, as described in Example 2, read-out: Average IC50 (nM) SK-BR-3 Cell line
[6] = Homo sapiens, SK-BR-3, 96 h, 96 h incubation, CellTiter-Glo, read-out: IC50 (nM) SKBR3 Cell line
[7] = free compounds, as described in Example 2, read-out: Average IC50 (nM) SK-BR-3 Cell line

SMILES | IC50 [1, 5] | also measured
COc1cc2cc(c1-c1ccc(N)cc1)N(C)C(=O)C[C@H](OC(=O)C(C)C)[C@]1(C)O[C@H]1[C@H](C)[C@@H]1C[C@@](O)(NC(=O)O1)[C@H](OC)/C=C/C=C(\C)C2 [Compound 4] | 1.2 nM | 
COc1cc2cc(c1-c1ccc(NC(=O)CCC(C)S)cc1)N(C)C(=O)C[C@H](OC(=O)C(C)C)[C@]1(C)O[C@H]1[C@H](C)[C@@H]1C[C@@](O)(NC(=O)O1)[C@H](OC)/C=C/C=C(\C)C2 (stereo partly drawn) [Compound 6] | 2.7 nM | 
COc1cc2cc(c1-c1ccc(NC(=O)CCC(C)(C)S)cc1)N(C)C(=O)C[C@H](OC(=O)C(C)C)[C@]1(C)O[C@H]1[C@H](C)[C@@H]1C[C@@](O)(NC(=O)O1)[C@H](OC)/C=C/C=C(\C)C2 [Compound 9] | 7.4 nM | 
COc1cc2cc(c1Cl)N(C)C(=O)C[C@H](OC(=O)[C@H](C)N(C)C(=O)CCC(C)SSC(C)CCC(=O)O)[C@]1(C)O[C@H]1[C@H](C)[C@@H]1C[C@@](O)(NC(=O)O1)[C@H](OC)/C=C/C=C(\C)C2 (stereo partly drawn) [Compound 78, reference compound] |  | degradation in mouse serum [2]: significant degradation
COc1cc2cc(c1-c1ccc(NC(=O)CCC(C)(C)S)c(Cl)c1)N(C)C(=O)C[C@H](OC(=O)C(C)C)[C@]1(C)O[C@H]1[C@H](C)[C@@H]1C[C@@](O)(NC(=O)O1)[C@H](OC)/C=C/C=C(\C)C2 [Compound 21] | 1.7 nM | 
COc1cc2cc(c1-c1ccc(NC(=O)CCC(C)SSC(C)CCC(=O)O)cc1)N(C)C(=O)C[C@H](OC(=O)C(C)C)[C@]1(C)O[C@H]1[C@H](C)[C@@H]1C[C@@](O)(NC(=O)O1)[C@H](OC)/C=C/C=C(\C)C2 (stereo partly drawn) [Compound 26] |  | degradation in mouse serum [2]: no comparable degradation products were observed; also recorded: no degradation products equivalent to A and B
COc1cc2cc(c1-c1ccc(NC(=O)OC(C)(C)C)cc1)N(C)C(=O)C[C@H](OC(=O)C(C)C)[C@]1(C)O[C@H]1[C@H](C)[C@@H]1C[C@@](O)(NC(=O)O1)[C@H](OC)/C=C/C=C(\C)C2 [Compound 3, 4-(N-Bocamino)phenyl-AP3] |  | IC50 [1, 6]: 4 nM; IC50 [3]: 0.7 nM
COc1cc2cc(c1-c1ccc(NC(=O)CCC(C)S)c(Cl)c1)N(C)C(=O)C[C@H](OC(=O)C(C)C)[C@]1(C)O[C@H]1[C@H](C)[C@@H]1C[C@@](O)(NC(=O)O1)[C@H](OC)/C=C/C=C(\C)C2 (stereo partly drawn) [Compound 18] | 0.9 nM | 
COc1cc2cc(c1/C=C/CN)N(C)C(=O)C[C@H](OC(=O)C(C)C)[C@]1(C)O[C@H]1[C@H](C)[C@@H]1C[C@@](O)(NC(=O)O1)[C@H](OC)/C=C/C=C(\C)C2 [Compound 31, reference compound] | 33.4 nM | 
COc1cc2cc(c1-c1ccc(NC(=O)CCS)c(Cl)c1)N(C)C(=O)C[C@H](OC(=O)C(C)C)[C@]1(C)O[C@H]1[C@H](C)[C@@H]1C[C@@](O)(NC(=O)O1)[C@H](OC)/C=C/C=C(\C)C2 [Compound 23] | 4.2 nM | 
COc1cc2cc(c1-c1ccc(N)c(Cl)c1)N(C)C(=O)C[C@H](OC(=O)C(C)C)[C@]1(C)O[C@H]1[C@H](C)[C@@H]1C[C@@](O)(NC(=O)O1)[C@H](OC)/C=C/C=C(\C)C2 [Compound 5] | 1.2 nM | 
COc1cc2cc(c1-c1ccc(N)cc1Cl)N(C)C(=O)C[C@H](OC(=O)C(C)C)[C@]1(C)O[C@H]1[C@H](C)[C@@H]1C[C@@](O)(NC(=O)O1)[C@H](OC)/C=C/C=C(\C)C2 (single isomer, unassigned) [Compound 81] |  | IC50 [1, 7]: 0.9 nM; stability of atropisomers (HPLC chromatograms) [4]: no changes were observed
COc1cc2cc(c1-c1ccc(N)cc1)N(C)C(=O)C[C@H](OC(=O)[C@H](C)N(C)C(C)=O)[C@]1(C)O[C@H]1[C@H](C)[C@@H]1C[C@@](O)(NC(=O)O1)[C@H](OC)/C=C/C=C(\C)C2 [Compound 32] | 5.5 nM | 
COc1cc2cc(c1-c1ccc(NC(=O)CCCS)cc1)N(C)C(=O)C[C@H](OC(=O)C(C)C)[C@]1(C)O[C@H]1[C@H](C)[C@@H]1C[C@@](O)(NC(=O)O1)[C@H](OC)/C=C/C=C(\C)C2 [Compound 12] | 4.2 nM | 
COc1cc2cc(c1Cl)N(C)C(=O)C[C@H](OC(=O)[C@H](C)N(C)C(=O)CCS)[C@]1(C)O[C@H]1[C@H](C)C1C[C@@](O)(NC(=O)O1)[C@H](OC)/C=C/C=C(\C)C2 [DM1, reference compound] |  | IC50 [1, 6]: 10 nM; IC50 [3]: 9 nM
COc1cc2cc(c1-c1ccc(N)cc1Cl)N(C)C(=O)C[C@H](OC(=O)C(C)C)[C@]1(C)O[C@H]1[C@H](C)[C@@H]1C[C@@](O)(NC(=O)O1)[C@H](OC)/C=C/C=C(\C)C2 (single isomer, unassigned) [Compound 80] |  | IC50 [1, 7]: 3.6 nM; stability of atropisomers (HPLC chromatograms) [4]: no changes were observed
COc1cc2cc(c1-c1ccc(NC(=O)CCS)cc1)N(C)C(=O)C[C@H](OC(=O)C(C)C)[C@]1(C)O[C@H]1[C@H](C)[C@@H]1C[C@@](O)(NC(=O)O1)[C@H](OC)/C=C/C=C(\C)C2 [Compound 15] | 5.4 nM | 
